Measurements from US20250296953A1, “3,4-THIAZOLO-STEROIDS AND METHODS OF MAKING AND USING THE SAME” (Arkansas State University - Jonesboro, priority 2018, published 2025).
Where two headings read alike, the source gives them in different places.

Experiments:
[1] = system: RPMI-8226; experiment: NCI 60 five dose screen; conditions: for GI50 / CC50: Homo sapiens; for GI50: RPMI-8226; for CC50: RPMI-8226, read-out: LC50; for TGI: RPMI-8226 (Leukemia), five dose
[2] = system: SK-MEL-28; experiment: Melanoma cytotoxicity assay (resazurin); assay type: cell-based; conditions: for SK-MEL-28 (% inhibition): SK-MEL-28 melanoma cells, 24 hours with compound, resazurin, concentration not given
How it was run: (§1)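 Viability read by resazurin fluorescence (ex 544, em 590 nm) after 6 h, following 24 h compound exposure of cells plated 24 h earlier (~4000/well). Triplicate means, minus medium blank, divided by DMSO control; IC50 derived from sigmoidal dose-response curves.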

[3] = system: SK-MEL-25; experiment: Melanoma cytotoxicity assay (resazurin); assay type: cell-based; conditions: for SK-MEL-25 (% inhibition): SK-MEL-25 melanoma cells, 24 hours with compound, resazurin, concentration not given
How it was run: as §1

[4] = system: SF-295; experiment: NCI 60 one dose screen; assay type: cell-based, human; conditions: one dose; CNS Cancer; SF-295
[5] = system: 60 different human tumor cell lines; conditions: for TGI: five dose
[6] = system: NCI-H522 (NSCLC); experiment: NCI 60 one dose screen; assay type: cell-based, human; conditions: Non-small Cell Lung Cancer
[7] = system: SR; experiment: NCI 60 five dose screen; conditions: for GI50 / CC50: Homo sapiens, SR; for CC50: read-out: LC50; for TGI: SR (Leukemia), five dose
[8] = system: gliosarcoma (SF-539); experiment: NCI 60 five dose screen; conditions: for GI50 / CC50: Homo sapiens; for GI50: SF-539; for CC50: SF-539, read-out: LC50; for TGI: SF-539 (CNS Cancer), five dose
[9] = A549/ATCC (Non-small Cell Lung Cancer)
[10] = EKVX (Non-small Cell Lung Cancer)
[11] = HOP-62 (Non-small Cell Lung Cancer)
[12] = HOP-92 (Non-small Cell Lung Cancer)
[13] = MDA-MB-231/ATCC (Breast Cancer)
[14] = NCI-H23 (Non-small Cell Lung Cancer)
[15] = NCI-H226 (Non-small Cell Lung Cancer)
[16] = NCI-H322M (Non-small Cell Lung Cancer)
[17] = NCI-H460 (Non-small Cell Lung Cancer)
[18] = NCI-H522 (Non-small Cell Lung Cancer)

C[C@]12CC[C@H]3[C@@H](CC=C4c5sc(Nc6ccccc6)nc5CC[C@@]43C)[C@@H]1CC[C@@H]2O [IIIa.10, (1S,2R,13R,14S,17S,18S)-7-anilino-2,18-dimethyl-8-thia-6-azapentacyclo[11.7.0.02,10.05,9.014,18]icosa-5(9),6,10-trien-17-ol]
GI50 [1]: 465 nM | CC50 [1]: > 100 µM | TGI [1]: 2.47E−6 | SK-MEL-28 (% viability) ([2]; human, 24 h): 13.79% | IC50 ([3]; Homo sapiens, SK-MEL-25 melanoma cells (head prints SK-25), read-out: SK-25 IC50): > 20 µM | SK-MEL-25 (% viability) ([3]; human, 24 h): 13.15% | Growth Percent [4]: 7.36% | TGI ([5]; 786-0 (Renal Cancer)): 3.30E−6 | TGI ([5]; A498 (Renal Cancer)): 5.66E−6 | TGI [5, 9]: 6.02E−6 | TGI ([5]; ACHN (Renal Cancer)): 3.25E−6 | TGI ([5]; BT-549 (Breast Cancer)): 4.31E−6 | TGI ([5]; CAKI-1 (Renal Cancer)): 5.68E−6 | TGI ([5]; CCRF-CEM (Leukemia)): 2.71E−5 | TGI ([5]; COLO 205 (Colon Cancer)): 5.61E−6 | TGI ([5]; DU-145 (Prostate Cancer)): 3.62E−6 | TGI [5, 10]: 9.26E−6 | TGI ([5]; HCC-2998 (Colon Cancer)): 3.56E−6 | TGI ([5]; HCT-15 (Colon Cancer)): 5.15E−6 | TGI ([5]; HCT-116 (Colon Cancer)): 3.01E−6 | TGI ([5]; HL-60(TB) (Leukemia)): 6.87E−6 | TGI [5, 11]: 6.54E−6 | TGI [5, 12]: 6.77E−6 | TGI ([5]; HS 578T (Breast Cancer)): 1.72E−5 | TGI ([5]; HT29 (Colon Cancer)): 4.45E−6 | TGI ([5]; IGROV1 (Ovarian Cancer)): 7.85E−6 | TGI ([5]; K-562 (Leukemia)): 1.26E−5 | TGI ([5]; KM12 (Colon Cancer)): 3.12E−6 | TGI ([5]; LOX IMVI (Melanoma)): 2.77E−6 | TGI ([5]; M14 (Melanoma)): 4.27E−6 | TGI ([5]; MALME-3M (Melanoma)): 5.89E−6 | TGI ([5]; MCF7 (Breast Cancer)): 4.73E−6 | TGI [5, 13]: 4.63E−6 | TGI ([5]; MDA-MB-435 (Melanoma)): 7.03E−6 | TGI ([5]; MDA-MB-468 (Breast Cancer)): 3.38E−6 | TGI ([5]; MOLT-4 (Leukemia)): 8.07E−6 | TGI [5, 14]: 5.04E−6 | TGI [5, 15]: 5.57E−6 | TGI [5, 16]: 1.11E−5 | TGI [5, 17]: 4.04E−6 | TGI [5, 18]: 4.50E−6 | TGI ([5]; NCI/ADR-RES (Ovarian Cancer)): 9.17E−5 | TGI ([5]; OVCAR-3 (Ovarian Cancer)): 2.62E−6 | TGI ([5]; OVCAR-4 (Ovarian Cancer)): 1.54E−5 | TGI ([5]; OVCAR-5 (Ovarian Cancer)): 7.86E−6 | TGI ([5]; OVCAR-8 (Ovarian Cancer)): 1.49E−5 | TGI ([5]; PC-3 (Prostate Cancer)): 5.84E−6 | TGI ([5]; RXF 393 (Renal Cancer)): 2.28E−6 | TGI ([5]; SF-268 (CNS Cancer)): 3.32E−6 | TGI ([5]; SK-MEL-2 (Melanoma)): 5.64E−6 | TGI ([5]; SK-MEL-5 (Melanoma)): 3.41E−6 | TGI ([5]; SK-MEL-28 (Melanoma)): 3.99E−6 | TGI ([5]; SK-OV-3 (Ovarian Cancer)): 1.79E−5 | TGI ([5]; SN12C (Renal Cancer)): 3.28E−6 | TGI ([5]; SNB-19 (CNS Cancer)): 3.77E−6 | TGI ([5]; SNB-75 (CNS Cancer)): 3.05E−6 | TGI ([5]; SW-620 (Colon Cancer)): 5.36E−6 | TGI ([5]; TK-10 (Renal Cancer)): 6.63E−6 | TGI ([5]; U251 (CNS Cancer)): 2.79E−6 | TGI ([5]; UACC-62 (Melanoma)): 3.96E−6 | TGI ([5]; UACC-257 (Melanoma)): 6.68E−6 | TGI ([5]; UO-31 (Renal Cancer)): 3.05E−6 | Growth Percent [6]: 25.77% | GI50 [7]: 241 nM | CC50 [7]: > 100 µM | TGI [7]: 6.10E−6 | GI50 [8]: 1190 nM | CC50 [8]: 5.74 µM | TGI [8]: 2.62E−6

C[C@]12CCc3sc(Nc4ccc(F)cc4F)nc3C1=CC[C@@H]1[C@@H]2CC[C@]2(C)C(=O)CC[C@@H]12 [IIa.10, (1S,2R,13R,14S,18S)-7-(2,4-difluoroanilino)-2,18-dimethyl-6-thia-8-azapentacyclo[11.7.0.02,10.05,9.014,18]icosa-5(9),7,10-trien-17-one]
GI50 [1]: 1880 nM | CC50 [1]: > 100 µM | SK-MEL-28 (% inhibition) [2]: 14% | SK-MEL-25 (% inhibition) [3]: 34% | Growth Percent [4]: 50.99% | TGI ([5]; A498 (Renal Cancer)): >1.00E−4 | TGI [5, 9]: >1.00E−4 | TGI ([5]; BT-549 (Breast Cancer)): >1.00E−4 | TGI [5, 10]: >1.00E−4 | TGI ([5]; HS 578T (Breast Cancer)): >1.00E−4 | TGI ([5]; K-562 (Leukemia)): >1.00E−4 | TGI ([5]; MOLT-4 (Leukemia)): >1.00E−4 | TGI [5, 16]: >1.00E−4 | TGI ([5]; OVCAR-4 (Ovarian Cancer)): >1.00E−4 | TGI ([5]; OVCAR-5 (Ovarian Cancer)): >1.00E−4 | TGI ([5]; OVCAR-8 (Ovarian Cancer)): >1.00E−4 | TGI ([5]; SK-OV-3 (Ovarian Cancer)): >1.00E−4 | TGI ([5]; SNB-19 (CNS Cancer)): >1.00E−4 | TGI ([5]; U251 (CNS Cancer)): >1.00E−4 | Growth Percent [6]: 42.56% | GI50 [7]: 2900 nM | CC50 [7]: > 100 µM | GI50 [8]: 1630 nM

C[C@]12CCc3sc(Nc4cccc(O)c4)nc3C1=CC[C@@H]1[C@@H]2CC[C@]2(C)C(=O)CC[C@@H]12 [IIa.17, (1S,2R,13R,14S,18S)-7-(3-hydroxyanilino)-2,18-dimethyl-6-thia-8-azapentacyclo[11.7.0.02,10.05,9.014,18]icosa-5(9),7,10-trien-17-one]
GI50 [1]: 2730 nM | CC50 [1]: > 100 µM | TGI [1]: 7.44E−6 | SK-MEL-28 (% inhibition) [2]: 87% | SK-MEL-25 (% inhibition) [3]: 79% | Growth Percent [4]: −47.70% | LC50 [5]: >l.00E−4 | TGI ([5]; 786-0 (Renal Cancer)): 1.31E−5 | TGI ([5]; A498 (Renal Cancer)): >1.00E−4 | TGI [5, 9]: >1.00E−4 | TGI ([5]; ACHN (Renal Cancer)): 2.95E−5 | TGI ([5]; CAKI-1 (Renal Cancer)): 3.02E−5 | TGI ([5]; CCRF-CEM (Leukemia)): >1.00E−4 | TGI ([5]; COLO 205 (Colon Cancer)): 3.74E−5 | TGI ([5]; DU-145 (Prostate Cancer)): 4.09E−5 | TGI [5, 10]: >1.00E−4 | TGI ([5]; HCC-2998 (Colon Cancer)): 4.48E−5 | TGI ([5]; HCT-15 (Colon Cancer)): 9.71E−6 | TGI ([5]; HCT-116 (Colon Cancer)): 4.17E−6 | TGI [5, 11]: >1.00E−4 | TGI [5, 12]: 6.79E−5 | TGI ([5]; HS 578T (Breast Cancer)): >1.00E−4 | TGI ([5]; HT29 (Colon Cancer)): 1.76E−5 | TGI ([5]; IGROV1 (Ovarian Cancer)): >1.00E−4 | TGI ([5]; K-562 (Leukemia)): >1.00E−4 | TGI ([5]; KM12 (Colon Cancer)): 2.94E−5 | TGI ([5]; LOX IMVI (Melanoma)): 1.08E−5 | TGI ([5]; M14 (Melanoma)): 5.09E−5 | TGI ([5]; MALME-3M (Melanoma)): >1.00E−4 | TGI ([5]; MCF7 (Breast Cancer)): 3.28E−5 | TGI [5, 13]: >1.00E−4 | TGI ([5]; MDA-MB-435 (Melanoma)): >1.00E−4 | TGI ([5]; MDA-MB-468 (Breast Cancer)): 1.46E−5 | TGI ([5]; MOLT-4 (Leukemia)): >1.00E−4 | TGI [5, 14]: >1.00E−4 | TGI [5, 15]: 4.50E−5 | TGI [5, 16]: >1.00E−4 | TGI [5, 17]: 2.79E−5 | TGI [5, 18]: 2.36E−5 | TGI ([5]; NCI/ADR-RES (Ovarian Cancer)): >1.00E−4 | TGI ([5]; OVCAR-3 (Ovarian Cancer)): 5.08E−5 | TGI ([5]; OVCAR-4 (Ovarian Cancer)): >1.00E−4 | TGI ([5]; OVCAR-5 (Ovarian Cancer)): >1.00E−4 | TGI ([5]; OVCAR-8 (Ovarian Cancer)): >1.00E−4 | TGI ([5]; PC-3 (Prostate Cancer)): 6.37E−5 | TGI ([5]; RXF 393 (Renal Cancer)): 1.42E−5 | TGI ([5]; SF-268 (CNS Cancer)): 7.00E−5 | TGI ([5]; SK-MEL-2 (Melanoma)): 6.08E−5 | TGI ([5]; SK-MEL-5 (Melanoma)): 2.60E−5 | TGI ([5]; SK-MEL-28 (Melanoma)): >1.00E−4 | TGI ([5]; SK-OV-3 (Ovarian Cancer)): >1.00E−4 | TGI ([5]; SN12C (Renal Cancer)): 2.53E−5 | TGI ([5]; SNB-19 (CNS Cancer)): >1.00E−4 | TGI ([5]; SNB-75 (CNS Cancer)): 7.25E−5 | TGI ([5]; SW-620 (Colon Cancer)): 1.56E−5 | TGI ([5]; T-47D (Breast Cancer)): >1.00E−4 | TGI ([5]; TK-10 (Renal Cancer)): 5.48E−5 | TGI ([5]; U251 (CNS Cancer)): 1.93E−5 | TGI ([5]; UACC-62 (Melanoma)): 2.96E−4 | TGI ([5]; UACC-257 (Melanoma)): 9.45E−5 | TGI ([5]; UO-31 (Renal Cancer)): 1.94E−5 | Growth Percent [6]: −56.41% | GI50 [7]: 2580 nM | CC50 [7]: > 100 µM | TGI [7]: >1.00E−4 | GI50 [8]: 3040 nM | CC50 [8]: 79.9 µM | TGI [8]: 1.33E−5
